# Source: patent publication US5618813A, “Benzo[5.6]pyrano[2.3.4-ij]quinolizine and benzo[5.6]thiopyrano[2.3.4-ij]quinolizine derivatives as antibacterial and antineoplastic agents” (Abbott Laboratories, priority 1995, dated 1997)
# Where a name gives a salt, the structure may show the parent alone. Read-outs that look alike come from different tables or passages of the source.
# Assays:
# Assay in all cases: In vitro antibacterial activity (MIC, agar dilution)
# Assay type in all cases: cell-based
# Myco. smegmatis ATCC 114 = settings: Mycolicibacterium smegmatis, ATCC114
# Method: (§1) Each plate was inoculated with 1:100 (or 1:10 for slow-growing strains, primarily Micrococcus and Streptococcus) dilutions of up to 32 different microorganisms, using a Steers replicator block calibrated to deliver approximately 10^4 colony forming units (CFUs). The inoculated plates were incubated at from about 35° C. to about 37° C. for approximately 20-24 hours. In o addition, a control plate using BHI agar containing no test compound was prepared and incubated at the beginning and at the end of each test. The quinolone antibacterial ciprofloxacin was used as a control ("Cntl").
# (§2) The MIC was defined as the lowest concentration of test compound yielding no growth (a slight haze or sparsely isolated colonies at the inoculum spot) as compared to the growth control containing no test compound.
# [1] = test system: Entero. faecium ATCC 8043; settings: Enterococcus faecium, ATCC8043
# Method: as §1, §2
# [2] = test system: Klebsiella pneumoniae ATCC 8045; settings: Klebsiella pneumoniae, ATCC8045
# Method: as §1, §2
# Staph. aureus CMX 553 = settings: Staphylococcus aureus, CMX553
# Method: as §1, §2
# P. aeruginosa A5007 = settings: Pseudomonas aeruginosa
# Method: as §1, §2
# Staph. aureus A5177 = settings: Staphylococcus aureus
# Method: as §1, §2
# Staph. aureus ATCC 6538P = settings: Staphylococcus aureus, ATCC6538P
# Method: as §1, §2
# Candida albicans CCH 442 = settings: CCH442
# Method: as §1, §2
# P. aeruginosa 2862 = settings: Pseudomonas aeruginosa
# Method: as §1, §2
# Staph. aureus 642A = settings: Staphylococcus aureus
# Method: as §1, §2
# P. aeruginosa K799/WT = settings: Pseudomonas aeruginosa
# Method: as §1, §2
# Strep. bovis A5169 = settings: Streptococcus equinus
# Method: as §1, §2
# [3] = test system: Strep. pyogenes 930 CONST; settings: Streptococcus pyogenes
# Method: as §1, §2
# [4] = test system: Enter. aerogenes ATCC 13048; settings: Klebsiella aerogenes, ATCC13048
# Method: as §1, §2
# [5] = test system: Staph. aureus 1775 Cipro.R.; settings: Staphylococcus aureus
# Method: as §1, §2
# [6] = test system: Acinetobacter calcoaceticus CMX 669; settings: CMX669
# Method: as §1, §2
# [7] = test system: Strep. agalactiae CMX 508; settings: Streptococcus agalactiae, CMX508
# Method: as §1, §2
# [8] = test system: Strep. pyogenes 2458 INDUC; settings: Streptococcus pyogenes
# Method: as §1, §2
# M. luteus ATCC 9341 = settings: Micrococcus luteus, ATCC9341
# Method: as §1, §2
# P. aeruginosa 5263 = settings: Pseudomonas aeruginosa
# Method: as §1, §2
# M. luteus ATCC 4698 = settings: Micrococcus luteus, ATCC4698
# Method: as §1, §2
# E. coli H560 = settings: Escherichia coli
# Method: as §1, §2
# Escherichia coli Juhl = test system: Escherichia coli Juhl
# Method: as §1, §2
# E. coli SS = settings: Escherichia coli
# Method: as §1, §2
# P. aeruginosa K799/61 = settings: Pseudomonas aeruginosa
# Method: as §1, §2
# Staph. epidermidis 3519 = settings: Staphylococcus epidermidis
# Method: as §1, §2
# E. coli DC-2 = settings: Escherichia coli, DC2
# Method: as §1, §2
# [9] = test system: Nocardia asteroides ATCC 9970; settings: Nocardia asteroides, ATCC9970
# Method: as §1, §2
# [10] = test system: Providencia stuartii CMX 640; settings: CMX640
# Method: as §1, §2
# Strep. pyogenes EES61 = settings: Streptococcus pyogenes
# Method: as §1, §2
# P. aeruginosa BMH 10 = settings: Pseudomonas aeruginosa, BMH10
# Method: as §1, §2
# Staph. aureus 5278 = settings: Staphylococcus aureus
# Method: as §1, §2
# Pseudomonas cepacia 296I = settings: Burkholderia cepacia
# Method: as §1, §2
# E. coli KNK 437 = settings: Escherichia coli, KNK437
# Method: as §1, §2
# Staph. aureus NCTC10649 = settings: Staphylococcus aureus
# Method: as §1, §2
# [11] = P. aeruginosa A5007, agar dilution, read-out: MIC
# [12] = P. aeruginosa 2862, agar dilution, read-out: MIC
# [13] = P. aeruginosa K799/WT, agar dilution, read-out: MIC
# [14] = Strep. bovis A5169, agar dilution, read-out: MIC
# [15] = Acinetobacter calcoaceticus CMX 669, agar dilution, read-out: MIC
# [16] = M. luteus ATCC 9341, agar dilution, read-out: MIC
# [17] = P. aeruginosa 5263, agar dilution, read-out: MIC
# [18] = M. luteus ATCC 4698, agar dilution, read-out: MIC
# [19] = E. coli H560, agar dilution, read-out: MIC
# [20] = E. coli SS, agar dilution, read-out: MIC
# [21] = E. coli DC-2, agar dilution, read-out: MIC
# [22] = P. aeruginosa BMH 10, agar dilution, read-out: MIC
# [23] = E. coli KNK 437, agar dilution, read-out: MIC
# [24] = Entero. faecium ATCC 8043, agar dilution, read-out: MIC
Compound,MIC (Myco. smegmatis ATCC 114) [µg/mL],MIC [2] [µg/mL],MIC (Staph. aureus CMX 553) [µg/mL],MIC (P. aeruginosa A5007; [11]) [µg/mL],MIC (Staph. aureus A5177) [µg/mL],MIC (Staph. aureus ATCC 6538P) [µg/mL],MIC (Staph. aureus 642A) [µg/mL],MIC [3] [µg/mL],MIC [4] [µg/mL],MIC [5] [µg/mL],MIC [7] [µg/mL],MIC [8] [µg/mL],MIC (Escherichia coli Juhl) [µg/mL],MIC (P. aeruginosa K799/61) [µg/mL],MIC (Staph. epidermidis 3519) [µg/mL],MIC [10] [µg/mL],MIC (Strep. pyogenes EES61) [µg/mL],MIC (Staph. aureus 5278) [µg/mL],MIC (Pseudomonas cepacia 296I) [µg/mL],MIC (Staph. aureus NCTC10649) [µg/mL],other results
"N[C@H]1CCC[C@H]2CN(c3c(F)cn4c(=O)c(C(=O)O)cc5c4c3Oc3ccccc3-5)C[C@H]21 (relative stereo) [Example 3, 1-(3aα, 4β, 7aα-4-aminooctahydro-[1H]-isoindol-2-yl)-2-fluoro-5H-5-oxo-benzo[5.6]pyrano[2.3.4-ij]quinolizine-6-carboxylic acid hydrochloride]",0.78,1.56,0.78,> 100,0.78,0.78,0.78,0.2,25,3.1,0.39,0.39,6.2,1.56,0.78,100,0.39,0.78,> 100,0.78,"MIC [1]: 1.56 µg/mL; MIC (Candida albicans CCH 442; Candida albicans CCH 442, agar dilution, read-out: MIC): > 100 µg/mL; MIC (P. aeruginosa 2862; [12]): > 100 µg/mL; MIC (P. aeruginosa K799/WT; [13]): > 100 µg/mL; MIC (Strep. bovis A5169; [14]): 0.39 µg/mL; MIC [6, 15]: 12.5 µg/mL; MIC (M. luteus ATCC 9341; [16]): 0.39 µg/mL; MIC (P. aeruginosa 5263; [17]): > 100 µg/mL; MIC (M. luteus ATCC 4698; [18]): 0.78 µg/mL; MIC (E. coli H560; [19]): 6.2 µg/mL; MIC (E. coli SS; [20]): 0.78 µg/mL; MIC (E. coli DC-2; [21]): 100 µg/mL; MIC [9]: 1.56 µg/mL; MIC (P. aeruginosa BMH 10; [22]): 100 µg/mL; MIC (E. coli KNK 437; [23]): 25 µg/mL"
"O=C(O)c1cn(C2CC2)c2cc(N3CCNCC3)c(F)cc2c1=O [Ciprofloxacin, ciprofloxacin, reference compound]",0.78,0.02,0.78,–,0.39,0.2,0.39,0.78,0.02,> 100,0.39,0.39,0.01,0.02,0.39,0.78,0.78,0.39,3.1,0.39,"MIC [1, 24]: 0.39 µg/mL; MIC (P. aeruginosa A5007; A5007): 0.1 µg/mL; MIC (Candida albicans CCH 442; Candida albicans): > 100 µg/mL; MIC (P. aeruginosa 2862; 2862): 12.5 µg/mL; MIC (P. aeruginosa K799/WT; K799/WT): 0.1 µg/mL; MIC (Strep. bovis A5169; A5169): 1.56 µg/mL; MIC ([6]; Acinetobacter calcoaceticus): 0.39 µg/mL; MIC (M. luteus ATCC 9341): 1.56 µg/mL; MIC (P. aeruginosa 5263; 5263): 12.5 µg/mL; MIC (M. luteus ATCC 4698): 0.78 µg/mL; MIC (E. coli H560; H560): 0.01 µg/mL; MIC (E. coli SS): 0.005 µg/mL; MIC (E. coli DC-2): 0.2 µg/mL; MIC [9]: 12.5 µg/mL; MIC (P. aeruginosa BMH 10): 0.1 µg/mL; MIC (E. coli KNK 437): 0.2 µg/mL"
"O=C(O)c1cc2c3c(c(N4CCOCC4)c(F)cn3c1=O)Oc1ccccc1-2 [Example 1, 1-(1-morpholinyl)-2-fluoro-5H-5-oxo-benzo[5.6]pyrano[2,3.4-ij]quinolizine-6-carboxylic acid]",–,12.5,0.78,> 100,0.78,0.78,0.78,6.2,> 100,1.56,3.1,6.2,> 100,12.5,0.39,> 100,3.1,0.78,100,0.39,"MIC [1, 24]: 25 µg/mL; MIC (P. aeruginosa 2862; [12]): > 100 µg/mL; MIC (P. aeruginosa K799/WT; [13]): > 100 µg/mL; MIC (Strep. bovis A5169; [14]): 25 µg/mL; MIC [6, 15]: 1.56 µg/mL; MIC (M. luteus ATCC 9341; [16]): 1.56 µg/mL; MIC (P. aeruginosa 5263; [17]): > 100 µg/mL; MIC (M. luteus ATCC 4698; [18]): 0.39 µg/mL; MIC (E. coli H560; [19]): > 100 µg/mL; MIC (E. coli SS; [20]): 0.39 µg/mL; MIC (E. coli DC-2; [21]): > 100 µg/mL; MIC (P. aeruginosa BMH 10; [22]): > 100 µg/mL; MIC (E. coli KNK 437; [23]): 50 µg/mL"
